# Data as given in US20060210479A1 (Dow Global Technologies Inc., priority 2004, published 2006).
# “And” between values parts separate entries of the source, which are not always exact repeats. Equal values may be shown once. Read-outs that look alike come from different tables or passages of the source.
# Assays:
# [1] = test system: HEK293 cells, normal (non-induced); assay: Permeability of chelates to HEK293 cells, fluorescence of fractions; type: cell-based, human; conditions: HEK293 Normal; 1 mM chelate, 2 hours
# In short: (§1)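 HEK293 cells were grown in EMEM with 10% heat-inactivated FBS at 37 °C, 5% CO2. Apoptosis was induced at 75% confluence with 20 μM etoposide (final) for 24 h, with 0.1% DMSO as vehicle control. Confluent cells exposed to chelate were rinsed with 10 mM HEPES, scraped, pelleted, and fraction fluorescence measured.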
# [2] = test system: etoposide-induced (apoptotic) HEK293 cells; assay: Permeability of chelates to apoptotic cells, fluorescence of fractions; type: cell-based, human
# In short: as §1
# C33-A cells = conditions: 1 mM EuQCTME, up to 240 min
# Protocol: (§2) Cells were counted and plated in a 20×100 mm cell culture dish at a density of about 2×10^6 cells.
# (§3) After incubation cells were collected by trypsinization and gently centrifuged (about […]) for 10 minutes. The cell supematant was discarded, and the resulting cell pellet was washed in cold PBS (phosphate buffered saline). The cell pellet was centrifuged again (about 2000 rpm) for 10 minutes. The PBS supernatant was discarded and the cold PBS wash was repeated and centrifuged as above. After discarding the PBS supernatant, the resulting cell pellet was used for NE-PER extraction (Pierce, Rockford, Ill.) according to the manufacturer's instructions.
# (§4) The resulting nuclear and cytoplasmic fractions from each time point were then placed into the wells of a 96-well white plate. Due to the volume of lysate available for measurement, the fractions were diluted 1:4 in HEPES binding buffer for a total volume of 100 liL. […] The following settings were optimized for measurement: excitation at 320 nm (band width: 35 nm), emission at 595 nm (bandwidth: 35 nm), gain 110, lag time 1 μs, integration time 2000 μs, # of flashes: 1.
# (§5) Because lysate volume was in limited quantity and protein concentration was relatively low, absorbances for protein measurements were read using the formula of Kalckar (1.45 OD280-0.74OD260=mg protein/mL). Each time point measurement above (in RFU) was normalized to its corresponding protein content and recalculated as RFU/μg protein.
# Caco-2 cells = conditions: 1 mM EuQCTME, up to 240 min
# Protocol: as §2, §3, §4, §5
# DU-145 cells = conditions: 1 mM EuQCTME, up to 240 min
# Protocol: as §2, §3, §4, §5
# HLAC cells = conditions: 1 mM EuQCTME, up to 240 min
# Protocol: as §2, §3, §4, §5
# NCM460 cells = conditions: 1 mM EuQCTME, up to 240 min
# Protocol: as §2, §3, §4, §5
# SK-MES cells = conditions: 1 mM EuQCTME, up to 240 min
# Protocol: as §2, §3, §4, §5
# C-33A cervical cells = conditions: read-out: Chelate Concentration Producing 50% Inhibition of Cancer Cell Growth, MTS, 96 hour continuous exposure
# Protocol: (§6) To assess whether or not chelate treatment of cancer cells could produce a net modulation in cell growth, the overall growth inhibitory effect of chelates on various cancer cell lines was tested. The concentration of chelate necessary to produce 50% growth inhibition was measured, as determined by detection of the formazan product of cellular […] of 3-(4,5-dimethylthiazol-2-yl)-5-(3-carboxymethoxyphenyl)-2-(4-sulfophenyl)-2H-tetrazolium, inner salt (MTS).
# [3] = test system: CaCo-2 colorectal adenocarcinoma cells; conditions: read-out: Chelate Concentration Producing 50% Inhibition of Cancer Cell Growth, MTS, 96 hour continuous exposure
# Protocol: as §6
# [4] = test system: Caki-1 renal cell carcinoma cells; conditions: read-out: Chelate Concentration Producing 50% Inhibition of Cancer Cell Growth, MTS, 96 hour continuous exposure
# Protocol: as §6
# [5] = test system: DU-145 prostate adenocarcinoma cells
# Protocol: as §6
# [6] = test system: HLaC head & neck squamous cell carcinoma cells; conditions: read-out: Chelate Concentration Producing 50% Inhibition of Cancer Cell Growth, MTS, 96 hour continuous exposure
# Protocol: as §6
# [7] = test system: HT-29 colon adenocarcinoma cells; conditions: read-out: Chelate Concentration Producing 50% Inhibition of Cancer Cell Growth, MTS, 96 hour continuous exposure
# Protocol: as §6
# [8] = test system: LnCaP prostate adenocarcinoma cells
# Protocol: as §6
# [9] = test system: MDA-231 breast adenocarcinoma cells
# Protocol: as §6
# [10] = test system: MDA-231-M breast adenocarcinoma cells, metastatic clone; conditions: read-out: Chelate Concentration Producing 50% Inhibition of Cancer Cell Growth, MTS, 96 hour continuous exposure
# Protocol: as §6
# [11] = test system: NCM460 normal human colon epithelial cells; conditions: read-out: Chelate Concentration Producing 50% Inhibition of Cancer Cell Growth; NCM460 control line; MTS; 96 hour continuous exposure
# Protocol: as §6
# [12] = test system: SK-MES lung non-small cell squamous carcinoma cells; conditions: read-out: Chelate Concentration Producing 50% Inhibition of Cancer Cell Growth, MTS, 96 hour continuous exposure
# Protocol: as §6
# [13] = test system: cancer cells (LNCaP, Caco-2, T84); assay: Chelate permeability and specificity, cancer cells versus normal cells (summary); type: cell-based, human; conditions: cancer cells
# [14] = test system: DMBA-induced tumor tissue of buccal cheek pouch; conditions: 2 mM solution topical, 10 minutes; for Fluorescence/mg Cytoplasm / Fluorescence/mg Membrane: readings Adjusted Volume CNT*mm2
# HSPC194 protein = HSPC194 protein (Homo sapiens, UniProt Q9P0S9); assay: Elution of HSPC194 from affinity support column by compounds; conditions: symbols not defined
# Sequence of HSPC194 protein (Q9P0S9 whole entry): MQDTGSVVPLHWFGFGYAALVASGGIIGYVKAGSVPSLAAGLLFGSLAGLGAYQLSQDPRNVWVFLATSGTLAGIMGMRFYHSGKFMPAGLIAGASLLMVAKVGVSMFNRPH
# Text: Purified HSPC194 protein was captured on an affinity support column. The unbound contaminants, which have no affinity for the ligand, are washed through the column, leaving the HSPC194 protein bound to the matrix.
smiles,measurement,setting,value
"CCOP(=O)([O-])CN1CCN(Cc2ccc3cc(C)ccc3n2)CCN(CP(=O)([O-])OCC)CCN(CP(=O)([O-])OCC)CC1.[Eu+3] [Eu-QCTME, Eu(III) N-(6-methyl-2-quinolylmethyl)-N′,N″,N′″-tris(methylenephosphonic acid ethyl ester)-1,4,7,10-tetraazacyclododecane]",Fluorescence/mg Membrane,[1],1799
same,permeability to apoptotic induced HEK293 cells,[2],permeable
same,Fluorescence/mg Membrane,"[2]; HEK293 Apoptotic (etoposide 20 μM, 24 hours), 1 mM chelate, 2 hours",1697
same,nuclear signal,C33-A cells,very low
same,nuclear and cytoplasmic fluorescence,Caco-2 cells,approximately 40 pg EuQCTME per μg protein
same,nuclear and cytoplasmic fluorescence,DU-145 cells,approximately 40 pg EuQCTME per μg protein
same,nuclear signal,HLAC cells,rapidly declined after an apparent initial burst
same,cytoplasm-associated fluorescence,NCM460 cells,< 10 pg EuQCTME per μg protein
same,nuclear signal,NCM460 cells,high nuclear signal
same,nuclear and cytoplasmic fluorescence,SK-MES cells,approximately 40 pg EuQCTME per μg protein
same,IC50,C-33A cervical cells,41 µM
same,IC50,[3],134 µM
same,IC50,[4],16 µM
same,"inhibitory activity, time course MTS","[5]; 500 μM, 24 hours",showed inhibitory activity
same,IC50,"[5]; read-out: Chelate Concentration Producing 50% Inhibition of Cancer Cell Growth, MTS, 96 hour continuous exposure",54.4 µM
same,IC50,[6],21.9 µM
same,IC50,[7],15.8 µM
same,growth inhibition,"[8]; LNCAP, 500 μM, 24 hours exposure",over 30%
same,IC50,"[8]; read-out: Chelate Concentration Producing 50% Inhibition of Cancer Cell Growth, LnCaP, MTS, 96 hour continuous exposure",46.4 µM
same,"inhibitory activity, time course MTS","[9]; MDA-231, 500 μM, 24 hours",showed inhibitory activity
same,growth inhibition,"[9]; MDA-MB-231, 500 μM, 24 hours exposure",over 30%
same,IC50,"[9]; read-out: Chelate Concentration Producing 50% Inhibition of Cancer Cell Growth, MDA-231, MTS, 96 hour continuous exposure",39.6 µM
same,IC50,[10],46.8 µM
same,IC50,[11],123 µM and 124 µM
same,IC50,[12],140 µM
same,permeability to cell membranes,[13],permeable to cancer cell membranes
same,fluorescence in the cytoplasm of tumor tissue compared to normal tissue,[14],significantly greater fluorescence
same,Fluorescence/mg Cytoplasm,[14]; Tumor 1,3524
same,Fluorescence/mg Membrane,[14]; Tumor 1,1670
same,Fluorescence/mg Cytoplasm,[14]; Tumor 2,3659
same,Fluorescence/mg Membrane,[14]; Tumor 2,1676
same,Elution of HSPC194 10 μM,HSPC194 protein; compound at 10 μM,0
same,Elution of HSPC194 50 μM,HSPC194 protein; compound at 50 μM,0
